Marks after values point to notes of the source that are not given here.
Legend:
[1] = system: female Sprague-Dawley rats; test: Cystometry tests on conscious fresh rats; type: in vivo, rat; details: effect maximum, mean of 3 micturition cycles
Method: Cystometry investigations were carried out on fresh female Sprague-Dawley rats according to the method of Ishizuka et. al. ((1997), Naunyn-Schmiedeberg's Arch. Pharmacol. 355: 787-793). Three days after implantation of bladder and venous catheters the animals were investigated in the conscious state while freely moving. The bladder catheter was connected to a pressure gauge and an injection pump. The animals were placed in metabolic cages that enable the volume of urine to be measured. Physiological saline solution was infused (10 ml/hour) into the emptied bladder and the bladder pressure and volume of urine were continuously recorded. After a stabilization phase a 20-minute phase was recorded that was characterized by normal, reproducible micturition cycles. The following parameters among others were measured: • threshold pressure (TP), bladder pressure immediately before micturition, • bladder capacity (BC), residual volume after prior micturition plus volume of infused solution during the filling phase, • intercontraction interval (ICI), the time interval between consecutive micturition.
An increase in the threshold pressure (TP) indicates an important therapeutic effect in one of the medical conditions suitable for treatment with the method of the invention. Also, the intercontraction interval (ICI) is an important parameter for measuring the physiological effectiveness of a substance in the treatment of urinary incontinence, as is the bladder capacity (BC). In this connection, on account of the widely differing causes of the symptoms of these disease patterns it is not necessary to influence positively all three parameters in order for a medicament to be effective.
After recording three reproducible micturition cycles to provide a baseline value, the test substances 24 (1.0; 3.0; 5.0 mg/kg), 25 (1.5 mg/kg) and 26 (3.0 mg/kg) in a vehicle comprising 0.9% NaCl were applied intravenously and the effect on the cystometric parameters was recorded at 90 to 120 minutes. In the effect maximum the mean value of 3 micturition cycles was determined and recorded as a percentage change compared to the baseline value (Table 1).

[2] = system: narcotized ventilated rats; test: Cystometry investigations in narcotized fresh rats (suppression of rhythmic spontaneous bladder contractions); type: in vivo, rat; details: intravenous, cumulative, lowest dose at which contractions disappeared for the first time over a period of 10 minutes
Method: The cystometric investigation was carried out on fresh female rats according to the method of Kimura et al. (Kimura et al., 1996, Int. J. Urol. 3: 218-227). The abdomen of narcotized ventilated rats is opened and the ureter is ligated. The urine is drawn off from the kidneys. A catheter is inserted into the bladder and secured in place. […] The test substance is applied intravenously in a cumulative manner after stable starting values were reached. An effect on the bladder function is manifested by the suppression of the spontaneous contractions. The disappearance of the contractions over a period of 10 minutes serves as a parameter for their suppression.
With all the substances listed there was a measurable suppression of the spontaneous contractions in rats.

| Compound | BC Bladder Capacity, change compared to the baseline value ([1]; 3.0 mg/kg iv) | ICI Inter-Contraction Interval, change compared to the baseline value ([1]; 3.0 mg/kg iv) | TP Threshold Pressure, change compared to the baseline value ([1]; 3.0 mg/kg iv) | Mean Value of Lowest Dose for Contraction Suppression [2] | further results |
| --- | --- | --- | --- | --- | --- |
| CN(C)C[C@H]1CC[C@@H](O)C[C@]1(O)c1cccc(O)c1.Cl (racemic) [Compound 26, (1RS,3RS,6RS)-6-dimethylaminomethyl-1-(3-hydroxyphenyl)-cyclohexane-1,3-diol, hydrochloride] | +29.0%*** | +27.0%* | +86.0%*** |  |  |
| COc1cccc([C@@]2(O)C[C@H](O)CC[C@@H]2CN(C)C)c1.Cl (racemic) [Compound 24, (1RS,3RS,6RS)-6-dimethylaminomethyl-1-(3-methoxyphenyl)-cyclohexane-1,3-diol, hydrochloride] | −16.0%* | −16%* | +94.0%** |  | BC Bladder Capacity, change compared to the baseline value ([1]; 1.0 mg/kg iv): −8.0%; ICI Inter-Contraction Interval, change compared to the baseline value ([1]; 1.0 mg/kg iv): −15%**; TP Threshold Pressure, change compared to the baseline value ([1]; 1.0 mg/kg iv): +44.0%***; BC Bladder Capacity, change compared to the baseline value ([1]; 5.0 mg/kg iv): −26.0%; ICI Inter-Contraction Interval, change compared to the baseline value ([1]; 5.0 mg/kg iv): −21.2%; TP Threshold Pressure, change compared to the baseline value ([1]; 5.0 mg/kg iv): +69.0%* |
| COc1cccc([C@@]2(O)C[C@H](O)CC[C@@H]2CN(C)C)c1.Cl [Compound 25, (+)-(1R,3R,6R)-6-dimethylaminomethyl-1-(3-methoxyphenyl)-cyclohexane-1,3-diol, hydrochloride] |  |  |  |  | BC Bladder Capacity, change compared to the baseline value ([1]; 1.5 mg/kg iv): −14.0%*; ICI Inter-Contraction Interval, change compared to the baseline value ([1]; 1.5 mg/kg iv): −9.0%; TP Threshold Pressure, change compared to the baseline value ([1]; 1.5 mg/kg iv): +62.0%* |
| C[C@H]1CC[C@H](CN(C)C)[C@@](O)(c2cccc(O)c2)C1.Cl [Compound 28, (+)-(1R,2R,5S)-3-(2-dimethylaminomethyl-1-hydroxy-5-methylcyclohexyl)-phenol, hydrochloride] |  |  |  | 16.7 (n = 3) mg/kg |  |
| COc1cccc([C@@]2(O)C[C@@H](O)CC[C@@H]2CN(C)C)c1.Cl (racemic) [Compound 27, (1RS,3SR,6RS)-6-dimethylaminomethyl-1-(3-methoxyphenyl)-cyclohexane-1,3-diol, hydrochloride] |  |  |  | 115 (n = 2) mg/kg |  |
| (1RS,2RS,5RS)-3-(2-dimethylaminomethyl-1-hydroxy-5-trifluoromethylcyclohexyl)-phenol,hydrochloride [Compound 29] |  |  |  | 23.3 (n = 3) mg/kg |  |

From patent US7361690B2, “Compositions and methods for the treatment of urinary incontinence” (Gruenenthal GmbH, priority 2000, dated 2008)
